In ChEMBL document CHEMBL1154921, “Phenylpropanoyl esters from Horseweed (Conyza canadensis) and their inhibitory effects on catecholamine secretion” (J Nat Prod, 2010):

Tests used:
[1] = Inhibition of acetylcholine-induced calcium flux in calcium 4 reagent loaded bovine chromaffin cells at 1 to 100 uM; assay type: functional; conditions: Bos taurus
[2] = Inhibition of acetylcholine-induced catecholamine secretion in bovine chromaffin cells after 10 mins by HPLC coupled electrochemical detector; assay type: functional, cell-based; conditions: Bos taurus

SMILES: COC(=O)[C@]12C[C@@H](OC(=O)/C=C/c3ccc(O)c(OC)c3)[C@@H](O)[C@H](O1)[C@@H](COC(=O)/C=C/c1ccc(O)c(O)c1)O2 (relative stereo)
- IC50 [1]: 59.8 µM
- IC50 [2]: 94.7 µM
